Measured values taken from patent US20060100146A1, “AWAT-related methods and articles” (priority 2004, published 2006).
“And” between values parts separate entries of the source, which are not always exact repeats. Equal entries are not always repeated.

T1: human AWAT1 (DGA2) (Homo sapiens, UniProt Q58HT5)
T1 construct: The full length DGA2 was sub cloned into the EcoRI and NotI sites of the pRS423-GP vector; made in house; host or cells: Saccharomyces cerevisiae SCY2056 (dga1Δ lro1Δ are2), galactose-inducible pRS423-GP vector; microsomes used
T1 sequence (Q58HT5 1-328): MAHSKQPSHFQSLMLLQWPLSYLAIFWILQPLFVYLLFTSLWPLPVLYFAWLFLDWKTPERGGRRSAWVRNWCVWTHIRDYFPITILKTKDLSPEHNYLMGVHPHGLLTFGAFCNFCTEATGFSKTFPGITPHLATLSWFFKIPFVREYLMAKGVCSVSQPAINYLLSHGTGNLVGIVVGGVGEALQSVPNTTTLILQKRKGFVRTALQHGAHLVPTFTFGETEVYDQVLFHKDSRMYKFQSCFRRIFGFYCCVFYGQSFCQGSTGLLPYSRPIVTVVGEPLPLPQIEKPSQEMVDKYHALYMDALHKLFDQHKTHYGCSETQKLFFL

T2: human AWAT2 (hDC4) (Homo sapiens, UniProt Q6E213)
T2 construct: The full-length hDC4 was then sub cloned into the EcoRI site of the pRS423-GP vector; made in house; host or cells: Saccharomyces cerevisiae SCY2056 (dga1Δ lro1Δ are2), galactose-inducible pRS423-GP vector; microsomes used
T2 sequence (Q6E213 1-333): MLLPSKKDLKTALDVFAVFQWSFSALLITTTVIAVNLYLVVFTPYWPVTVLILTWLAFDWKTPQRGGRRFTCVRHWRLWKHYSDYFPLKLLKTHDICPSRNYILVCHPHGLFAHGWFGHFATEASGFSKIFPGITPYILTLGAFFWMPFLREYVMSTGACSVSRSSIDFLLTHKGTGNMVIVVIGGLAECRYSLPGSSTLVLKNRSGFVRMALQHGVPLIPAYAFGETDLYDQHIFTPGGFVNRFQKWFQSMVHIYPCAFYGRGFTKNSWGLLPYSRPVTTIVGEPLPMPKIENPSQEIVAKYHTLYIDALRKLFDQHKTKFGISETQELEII


Key:
human AWAT1 (DGA2) = biological target: T1, human AWAT1 (DGA2); assay: In vitro AWAT substrate specificity assay, AWAT1 microsomes; format: biochemical; details: for Activity of AWAT1 (DGA2) towards various acyl-CoAs / Activity of AWAT1 (DGA2) towards various wax alcohols: 20 μg microsomes, wax ester formed, vector control removed, mean +/- Std. dev., triplicate; for Activity of AWAT1 (DGA2) towards various acyl-CoAs: [14C]cetyl alcohol as acyl acceptor; for Activity of AWAT1 (DGA2) towards various wax alcohols: [14C]oleoyl-CoA as acyl donor
Description: (§1) Acyl-CoA wax alcohol acyltransferase (AWAT) assays were performed as above with the following exceptions: 200 μM cetyl alcohol (unlabeled or [^14C]-labeled 10,000 dpm/nmol) was substituted for DAG, oleoyloleate was used as carrier, and reactions were incubated for 20 min in a final volume of 250 μl. After separation by TLC, the spot corresponding to wax ester was cut out and counted. For alcohol and acyl-CoA substrate specificity studies, microsomal preparations from DGA2 (20 μg) and hDC4 (10 μg) were used. Kill reactions and vector controls were included for all experiments. The various wax alcohols and acyl-Co A's were substituted for cetyl alcohol or oleoyl Co A at the concentrations specified above. Activity is presented as pmol/min/mg protein.
(§2) In vitro AWAT assays were performed using microsomal preparations from TG null yeast strains transformed with human AWAT1 (DGA2), AWAT2 (hDC4) or a vector control harboring no insert. AWAT1 (20 μg) and AWAT2 (10 μg) microsomes were assayed as described under Experimental Procedures. Activity is in pmol of wax ester formed per min/mg protein, expressed as a mean±Std. dev. from a representative experiment performed in triplicate. Vector control background has been removed. In vitro determination of alcohol and acyl-CoA substrate specificities were performed with [^14C]oleoyl-CoA and the indicated alcohols or [^14C]cetyl alcohol and the indicated acyl-CoA donors (Table 3A and 3B, respectively). Kill reactions were included for all experiments.

human AWAT2 (hDC4) = biological target: T2, human AWAT2 (hDC4); assay: In vitro AWAT substrate specificity assay, AWAT2 microsomes; format: biochemical; details: for Activity of AWAT2 (hDC4) towards various acyl-CoAs / Activity of AWAT2 (hDC4) towards various wax alcohols: 10 μg microsomes, wax ester formed, vector control removed, mean +/- Std. dev., triplicate; for Activity of AWAT2 (hDC4) towards various acyl-CoAs: [14C]cetyl alcohol as acyl acceptor; for Activity of AWAT2 (hDC4) towards various wax alcohols: [14C]oleoyl-CoA as acyl donor
Description: as §1, §2

[1] = tested on: TAG formation from dioleoylglycerol and [14C]oleoyl-CoA; assay: In vitro DGAT (diacylglycerol esterification) assay in yeast microsomes; format: biochemical; details: microsomes from TG-null yeast expressing the human enzyme; dioleoylglycerol + [14C]oleoyl-CoA; TAG formed; vector control subtracted; mean +/- Std. dev., 3 replicate experiments
Description: (§3) A dilute inoculation of each strain into 500 mL of SC-His+2% galactose+1% raffinose was grown overnight at 30° C. into log phase. Cells were washed and lysed, and microsomes were prepared from a 100,000 g spin, as previously described (39). Protein concentrations were determined (40) and diacylglycerol esterification assays were performed as described previously (17,19,41). In brief, microsomes (100 μg) were preincubated for 5 min at 37° in 100 mM TRIS, pH 7.5 containing 0.25 M sucrose, 1 mM EDTA, 10 mM MgCl2, 20 μM fatty acid free BSA, 160 μM dioleoylglycerol (in 5 μl acetone, final volume 200 μl). The reaction was initiated by the addition of [^14C]oleoyl-CoA (10-20,000 dpm/nmol, 40 μM) and stopped after 10 min by the addition of 4 ml of chloroform:methanol (2:1 v/v). Carrier TAG (10 μg) and internal standard ([^3H]triolein, 30,000 dpm) were added followed by 0.8 ml water to separate phases. The lower chloroform layer containing the lipids was removed, evaporated to dryness, resuspended in 50 μl chloroform and individual lipid classes separated on Varian chromatography paper using a hexane:diethyl ether:acetic acid (170:30:1 v/v) mobile phase. The spot corresponding to TG was cut out and counted.
(§4) Microsomes from TG-null yeast strains transformed with human DGAT2, DGA2, hDC3, or hDC4 were incubated in the presence of dioleoylglycerol or cetyl alcohol and [^14C]oleoyl-CoA and assayed for esterification as described in Experimental Procedures. Data are expressed as pmol of neutral lipid (TAG or Wax ester) formed per min/mg protein as a mean±Std. dev. DGAT activities are from 3 replicate experiments and AWAT activities are from a representative experiment performed in triplicate. Background levels to the assay from strains transformed with vector control have been subtracted.

[2] = tested on: wax ester formation from cetyl alcohol and oleoyl-CoA; assay: In vitro AWAT (acyl-CoA wax alcohol acyltransferase) assay in yeast microsomes; format: biochemical, human
Description: as §3, §1, §4

[3] = microsomes from TG-null yeast expressing the human enzyme, cetyl alcohol + [14C]oleoyl-CoA, wax ester formed, vector control subtracted, mean +/- Std. dev., triplicate
[4] = [14C]cetyl alcohol rather than radiolabeled oleoyl CoA as monitor of ester formation

| Molecule | Activity of AWAT1 (DGA2) towards various acyl-CoAs (human AWAT1 (DGA2)) | Activity of AWAT2 (hDC4) towards various acyl-CoAs (human AWAT2 (hDC4)) | Activity of AWAT1 (DGA2) towards various wax alcohols (human AWAT1 (DGA2)) | Activity of AWAT2 (hDC4) towards various wax alcohols (human AWAT2 (hDC4)) | further results |
| --- | --- | --- | --- | --- | --- |
| CCCCCC/C=C\CCCCCCCC(=O)SCCNC(=O)CCNC(=O)[C@H](O)C(C)(C)COP(=O)(O)OP(=O)(O)OC[C@H]1O[C@@H](n2cnc3c(N)ncnc32)[C@H](O)[C@@H]1OP(=O)(O)O [Palmitoleoyl C-16:1, palmitoleoyl CoA] | −20 +/− 25 pmol/min/mg protein | 1125 +/− 220 pmol/min/mg protein |  |  | AWAT1 activity using the acyl-CoA (in words) (human AWAT1 (DGA2); cetyl alcohol as acyl acceptor): no activity |
| CCCCCC/C=C\CCCCCCCCO [Palmitoleyl C-16:1] |  |  | 184 +/− 29 pmol/min/mg protein | 582 +/− 117 pmol/min/mg protein |  |
| CCCCCCCC/C=C\CCCCCCCCO [Oleyl C-18:1] |  |  | 247 +/− 23 pmol/min/mg protein | 892 +/− 106 pmol/min/mg protein |  |
| CCCCCCCCCCCCCCCCO [Cetyl (Palmityl) C-16, cetyl alcohol] |  |  | 83 +/− 6 pmol/min/mg protein | 665 +/− 54 pmol/min/mg protein |  |
| CCCCCCCC/C=C\CCCCCCCC(=O)SCCNC(=O)CCNC(=O)[C@H](O)C(C)(C)COP(=O)(O)OP(=O)(O)OC[C@H]1O[C@@H](n2cnc3c(N)ncnc32)[C@H](O)[C@@H]1OP(=O)(O)O [Oleoyl C-18:1, oleoyl CoA] | 113 +/− 7 pmol/min/mg protein | 1232 +/− 349 pmol/min/mg protein |  |  | Utilization by AWAT1 relative to stearoyl CoA (C18:0) (human AWAT1 (DGA2); cetyl alcohol as acyl acceptor): 20% |
| DGAT2: human diacylglycerol acyltransferase 2, expressed in TG-null yeast; microsomes assayed (protein, UniProt Q96PD7 1-388, looked up, yeast microsomes, human diacylglycerol acyltransferase 2, expressed in TG-null yeast; microsomes assayed) Diacylglycerol …: MKTLIAAYSGVLRGERQAEADRSQRSHGGPALSREGSGRWGTGSSILSALQDLFSVTWLNRSKVEKQLQVISVLQWVLSFLVLGVACSAILMYIFCTDCWLIAVLYFTWLVFDWNTPKKGGRRSQWVRNWAVWRYFRDYFPIQLVKTHNLLTTRNYIFGYHPHGIMGLGAFCNFSTEATEVSKKFPGIRPYLATLAGNFRMPVLREYLMSGGICPVSRDTIDYLLSKNGSGNAIIIVVGGAAESLSSMPGKNAVTLRNRKGFVKLALRHGADLVPIYSFGENEVYKQVIFEEGSWGRWVQKKFQKYIGFAPCIFHGRGLFSSDTWGLVPYSKPITTVVGEPITIPKLEHPTQQDIDLYHTMYMEALVKLFDKHKTKFGLPETEVLEVN |  |  |  |  | DGAT Activity [1]: 65.4 pmol/min/mg protein and 65.4 +/− 3.4 pmol/min/mg protein; AWAT Activity [2, 3]: −11.5 +/− 1.3 pmol/min/mg protein |
| hDC4: acyl-CoA wax alcohol acyltransferase 2, synonym human DGAT candidate gene 4; human enzyme expressed in yeast microsomes (protein, UniProt Q6E213 1-333, looked up, yeast microsomes, acyl-CoA wax alcohol acyltransferase 2, synonym human DGAT candidate gene 4; human enzyme expressed in yeast microsomes) Acyl-CoA wax alcohol …: MLLPSKKDLKTALDVFAVFQWSFSALLITTTVIAVNLYLVVFTPYWPVTVLILTWLAFDWKTPQRGGRRFTCVRHWRLWKHYSDYFPLKLLKTHDICPSRNYILVCHPHGLFAHGWFGHFATEASGFSKIFPGITPYILTLGAFFWMPFLREYVMSTGACSVSRSSIDFLLTHKGTGNMVIVVIGGLAECRYSLPGSSTLVLKNRSGFVRMALQHGVPLIPAYAFGETDLYDQHIFTPGGFVNRFQKWFQSMVHIYPCAFYGRGFTKNSWGLLPYSRPVTTIVGEPLPMPKIENPSQEIVAKYHTLYIDALRKLFDQHKTKFGISETQELEII |  |  |  |  | DGAT Activity [1]: 11.4 +/− 3.4 pmol/min/mg protein; AWAT Activity [2, 4]: 1232 pmol/min/mg; AWAT Activity [2, 3]: 1066 pmol/min/mg protein and 1066 +/− 18.6 pmol/min/mg protein |
| DGA2: acyl-CoA wax alcohol acyltransferase 1, synonym diacyl-glycerol acyltransferase 2; human enzyme expressed in yeast microsomes (protein, UniProt Q58HT5 1-328, looked up, yeast microsomes, acyl-CoA wax alcohol acyltransferase 1, synonym diacyl-glycerol acyltransferase 2; human enzyme expressed in yeast microsomes) Acyl-CoA wax alcohol …: MAHSKQPSHFQSLMLLQWPLSYLAIFWILQPLFVYLLFTSLWPLPVLYFAWLFLDWKTPERGGRRSAWVRNWCVWTHIRDYFPITILKTKDLSPEHNYLMGVHPHGLLTFGAFCNFCTEATGFSKTFPGITPHLATLSWFFKIPFVREYLMAKGVCSVSQPAINYLLSHGTGNLVGIVVGGVGEALQSVPNTTTLILQKRKGFVRTALQHGAHLVPTFTFGETEVYDQVLFHKDSRMYKFQSCFRRIFGFYCCVFYGQSFCQGSTGLLPYSRPIVTVVGEPLPLPQIEKPSQEMVDKYHALYMDALHKLFDQHKTHYGCSETQKLFFL |  |  |  |  | DGAT Activity [1]: 7.8 +/− 3.2 pmol/min/mg protein; AWAT Activity [2, 4]: 113 pmol/min/mg; AWAT Activity [2, 3]: 31.7 pmol/min/mg protein and 31.7 +/− 17.4 pmol/min/mg protein |

Continued, in another order:

| Activity of AWAT1 (DGA2) towards various acyl-CoAs (human AWAT1 (DGA2)) | Activity of AWAT2 (hDC4) towards various acyl-CoAs (human AWAT2 (hDC4)) | Activity of AWAT1 (DGA2) towards various wax alcohols (human AWAT1 (DGA2)) | Activity of AWAT2 (hDC4) towards various wax alcohols (human AWAT2 (hDC4)) | Molecule | further results |
| --- | --- | --- | --- | --- | --- |
| 656 +/− 39 pmol/min/mg protein | 549 +/− 38 pmol/min/mg protein |  |  | CCCCCCCCCCCCCCCCCC(=O)SCCNC(=O)CCNC(=O)[C@H](O)C(C)(C)COP(=O)(O)OP(=O)(O)OC[C@H]1O[C@@H](n2cnc3c(N)ncnc32)[C@H](O)[C@@H]1OP(=O)(O)O [Stearoyl C-18, stearoyl CoA] |  |
| 390 +/− 121 pmol/min/mg protein | 524 +/− 164 pmol/min/mg protein |  |  | CCCCCCCCCCCCCCCC(=O)SCCNC(=O)CCNC(=O)[C@H](O)C(C)(C)COP(=O)(O)OP(=O)(O)OC[C@H]1O[C@@H](n2cnc3c(N)ncnc32)[C@H](O)[C@@H]1OP(=O)(O)O [Palmitoyl C-16] |  |
|  |  | 419 +/− 180 pmol/min/mg protein | −50 +/− 277 pmol/min/mg protein | CCCCCCCCCCO [Decyl C-10, decyl alcohol] | AWAT2 activity using the alcohol (in words) (human AWAT2 (hDC4); oleoyl CoA as acyl donor): no activity |
|  |  | 22 +/− 4 pmol/min/mg protein | 27 +/− 4 pmol/min/mg protein | CCCCCCCCCCCCCCCCCCCCO [Arachidyl C-20, arachidyl alcohol] | Utilization by AWAT1 relative to decyl alcohol (human AWAT1 (DGA2); oleoyl CoA as acyl donor): about 5% |
|  |  | 27 +/− 5 pmol/min/mg protein | 138 +/− 24 pmol/min/mg protein | CCCCCCCCCCCCCCCCCCO [Stearyl C-18] |  |
